Results reported in ChEMBL document CHEMBL1125524, “Adenosine A1 antagonists. 2. Structure-activity relationships on diuretic activities and protective effects against acute renal failure” (J Med Chem, 1992).

Assays:
Rattus norvegicus [1] = experiment: Effect on urinary excretion potassium and sodium after oral administration of 0.4 mg/kg to rats(potassium and sodium excretion in control rat is 0.175+/-0.014); format: functional, Urine
Rattus norvegicus [2] = experiment: Effect on urinary excretion potassium and sodium after oral administration of 1.6 mg/kg to rats(potassium and sodium excretion in control rat is 0.122+/-0.008); format: functional, Urine
Rattus norvegicus [3] = experiment: Ratio of urinary excretion value (urinary volume) in treated rats to that in control rats, at a peroral dose of 0.4 mg/Kg; format: functional, Urine
Rattus norvegicus [4] = experiment: Ratio of urinary excretion value (urinary volume) in treated rats to that in control rats, at a peroral dose of 1.6 mg/Kg; format: functional, Urine
Rattus norvegicus [5] = experiment: Ratio of urinary excretion value (urinary volume) in treated rats to that in control rats, at a peroral dose of 25 mg/Kg; format: functional, Urine
Rattus norvegicus [6] = experiment: Ratio of sodium ion/potassium ion concentration in treated rats to that in control rats, at a peroral dose of 0.4 mg/Kg; format: functional
Rattus norvegicus [7] = experiment: Ratio of sodium ion/potassium ion concentration in treated rats to that in control rats, at a peroral dose of 1.6 mg/Kg; format: functional
Rattus norvegicus [8] = experiment: Ratio of sodium ion/potassium ion concentration in treated rats to that in control rats, at a peroral dose of 25 mg/Kg; format: functional
Rattus norvegicus [9] = experiment: Ratio of urinary excretion value (Na+ concentration) in treated rats to that in control rats, at a peroral dose of 0.4 mg/Kg; format: functional, Urine
Rattus norvegicus [10] = experiment: Ratio of urinary excretion value (Na+ concentration) in treated rats to that in control rats, at a peroral dose of 1.6 mg/Kg; format: functional, Urine
Rattus norvegicus [11] = experiment: Ratio of urinary excretion value (Na+ concentration) in treated rats to that in control rats, at a peroral dose of 25 mg/Kg; format: functional, Urine
Rattus norvegicus [12] = experiment: Ratio of urinary excretion value (Na+ concentration) in treated rats to that in control rats, at a peroral dose of 6.25 mg/Kg; format: functional, Urine
Rattus norvegicus [13] = experiment: Effect on urinary excretion potassium and sodium after oral administration of 25 mg/kg to rats(potassium and sodium excretion in control rat is […]+/-[…]); format: functional, Urine
Rattus norvegicus [14] = experiment: Oral diuretic activity was measured after oral administration of 25 mg/kg to rats(control volume is […]+/-[…]); format: functional, Urine
Rattus norvegicus [15] = experiment: Oral diuretic activity was measured after oral administration of 0.4 mg/kg to rats(control volume is 0.94+/-0.03); format: functional, Urine
Rattus norvegicus [16] = experiment: Oral diuretic activity was measured after oral administration of 1.6 mg/kg to rats(control volume is 0.83+/-0.07); format: functional, Urine
Rattus norvegicus [17] = experiment: Serum creatinine concentration measured after intraperitoneal administration of 1 mg/kg of compound to rats(vehicle 5.43+/-0.11); format: functional
Rattus norvegicus [18] = experiment: Urea nitrogen concentration measured after intraperitoneal administration of 1 mg/kg of compound to rats(vehicle 182.5+/-3.4); format: functional
Rattus norvegicus [19] = experiment: Percent inhibition of serum creatinine by the compound given as ratio of Cr value in treated to vehicle treated ones after intraperitoneal administration of 1 mg/kg of compound to rats(vehicle 5.43+/-0.11); format: functional; conditions: ip
Rattus norvegicus [20] = experiment: Percent inhibition of Urea nitrogen by the compound given as ratio of UN value in treated to vehicle treated ones after intraperitoneal administration of 1 mg/kg of compound to rats(vehicle 182.5+/-3.4); format: functional; conditions: ip
Rattus norvegicus [21] = experiment: Ratio of urinary excretion value (urinary volume) in treated rats to that in control rats, at a peroral dose of 6.25 mg/Kg; format: functional, Urine
Adenosine receptor A1 = molecular target: T1, Adenosine receptor A1 (Rattus norvegicus, UniProt P25099)
T1 sequence (P25099 whole entry): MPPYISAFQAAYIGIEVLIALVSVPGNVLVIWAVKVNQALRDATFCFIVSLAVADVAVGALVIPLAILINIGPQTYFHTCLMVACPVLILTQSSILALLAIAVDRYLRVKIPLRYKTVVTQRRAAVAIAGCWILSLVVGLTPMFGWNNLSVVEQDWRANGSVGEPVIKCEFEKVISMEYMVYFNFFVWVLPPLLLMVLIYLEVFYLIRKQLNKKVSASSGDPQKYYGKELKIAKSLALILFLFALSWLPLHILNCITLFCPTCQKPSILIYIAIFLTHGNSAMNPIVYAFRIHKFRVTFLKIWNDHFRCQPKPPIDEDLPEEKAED
Description: Binding affinity towards adenosine A1 receptor in rat forebrain membranes using N6-[3H]cyclohexyladenosine

Adenosine A2 receptor = Adenosine A2 receptor (Rattus norvegicus, UniProt P29276+P30543)
Rattus norvegicus [22] = experiment: Serum creatinine concentration measured after intraperitoneal administration of 1 mg/kg of compound to rats(vehicle 4.70+/-0.17); format: functional
Rattus norvegicus [23] = experiment: Serum creatinine concentration measured after intraperitoneal administration of 10 mg/kg of compound to rats(vehicle 4.41+/-0.16); format: functional
Rattus norvegicus [24] = experiment: Percent inhibition of serum creatinine by the compound given as ratio of Cr value in treated to vehicle treated ones after intraperitoneal administration of 1 mg/kg of compound to rats(vehicle 4.70+/-0.17); format: functional; conditions: ip
Rattus norvegicus [25] = experiment: Percent inhibition of serum creatinine by the compound given as ratio of Cr value in treated to vehicle treated ones after intraperitoneal administration of 10 mg/kg of compound to rats(vehicle 4.41+/-0.16); format: functional; conditions: ip
Rattus norvegicus [26] = experiment: Urea nitrogen concentration measured after intraperitoneal administration of 1 mg/kg of compound to rats(vehicle 154.2+/-5); format: functional
Rattus norvegicus [27] = experiment: Effect on urinary excretion potassium and sodium after oral administration of 25 mg/kg to rats(potassium and sodium excretion in control rat is 0.180+/-0.014); format: functional, Urine
Rattus norvegicus [28] = experiment: Oral diuretic activity was measured after oral administration of 25 mg/kg to rats(control volume is 1.21+/-0.08); format: functional, Urine
Rattus norvegicus [29] = experiment: Urea nitrogen concentration measured after intraperitoneal administration of 10 mg/kg of compound to rats(vehicle 145.1+/-7.4); format: functional
Rattus norvegicus [30] = experiment: Percent inhibition of Urea nitrogen by the compound given as ratio of UN value in treated to vehicle treated ones after intraperitoneal administration of 10 mg/kg of compound to rats(vehicle 145.1+/-7.4); format: functional; conditions: ip
Rattus norvegicus [31] = experiment: Percent inhibition of Urea nitrogen by the compound given as ratio of UN value in treated to vehicle treated ones after intraperitoneal administration of 1 mg/kg of compound to rats(vehicle 154.2+/-5); format: functional; conditions: ip

Compound: CCCn1c(=O)c2nc(C(C3CC3)C3CC3)[nH]c2n(CCC)c1=O
- Na (Rattus norvegicus [1]): 0.255 m equiv 6hr-1 100g-1
- Na (Rattus norvegicus [2]): 0.284 m equiv 6hr-1 100g-1
- T/C (Rattus norvegicus [3]): 1.33
- T/C (Rattus norvegicus [4]): 2.2
- T/C (Rattus norvegicus [5]): 2.44
- Na+/K+ (Rattus norvegicus [6]): 1.27
- Na+/K+ (Rattus norvegicus [7]): 1.56
- Na+/K+ (Rattus norvegicus [8]): 1.71
- T/C (Rattus norvegicus [9]): 1.45
- T/C (Rattus norvegicus [10]): 2.33
- T/C (Rattus norvegicus [11]): 2.16
- T/C (Rattus norvegicus [12]): 2.69
- Na (Rattus norvegicus [13]): 0.35 m equiv 6hr-1 100g-1
- Urine volume (Rattus norvegicus [14]): 2.07 ml 6hr-1 100g-1
- Urine volume (Rattus norvegicus [15]): 1.25 ml 6hr-1 100g-1
- Urine volume (Rattus norvegicus [16]): 1.83 ml 6hr-1 100g-1
- Cr (Rattus norvegicus [17]): 5.43 mg/dL
- UN (Rattus norvegicus [18]): 107.6 mg/dL
- inhibition in vivo at 1 mg/kg (Rattus norvegicus [19]): 45%
- inhibition in vivo at 1 mg/kg (Rattus norvegicus [20]): 41%
- T/C (Rattus norvegicus [21]): 2.39
- Ki (Adenosine receptor A1): 0.99 nM
- Ki (Adenosine A2 receptor): 430 nM

Compound: Cn1c(=O)c2c(ncn2C)n(C)c1=O [CAFFEINE]
- Cr (Rattus norvegicus [22]): 3.68 mg/dL
- Cr (Rattus norvegicus [23]): 2.85 mg/dL
- inhibition in vivo at 1 mg/kg (Rattus norvegicus [24]): 22%
- inhibition in vivo at 10 mg/kg (Rattus norvegicus [25]): 35%
- T/C (Rattus norvegicus [5]): 1.68
- UN (Rattus norvegicus [26]): 125.7 mg/dL
- Na+/K+ (Rattus norvegicus [8]): 1.28
- T/C (Rattus norvegicus [11]): 1.55
- T/C (Rattus norvegicus [12]): 1.1
- Na (Rattus norvegicus [27]): 0.28 m equiv 6hr-1 100g-1
- Urine volume (Rattus norvegicus [28]): 1.84 ml 6hr-1 100g-1
- UN (Rattus norvegicus [29]): 109 mg/dL
- inhibition in vivo at 10 mg/kg (Rattus norvegicus [30]): 25%
- inhibition in vivo at 1 mg/kg (Rattus norvegicus [31]): 18%
- T/C (Rattus norvegicus [21]): 0.92
